Source: PMC3419816 (Journal of molecular neuroscience : MN, 2012)
Where two headings read alike, the source gives them in different places. Positions of bridges follow the written chain, without caps; N, C: chain ends. No end group written: not given here.

How the values were obtained:
[1] = test system: phosphatidylinositol turnover; settings: lung cancer cells, cited from earlier work
[2] = test system: epidermal growth factor receptor (EGFR); settings: ref Moody et al., 2012, cited from earlier work; for effect on PACAP-induced EGFR tyrosine phosphorylation: NCI-H838
PYK-2 [3] = assay: Total PYK-2 Western blot, NCI-H838 cells; format: cell-based; settings: 100 nM, 2 min, Fig. 3A
PAC1 = settings: cited from earlier work
cAMP = settings: lung cancer cells, cited from earlier work
ERK [4] = settings: NCI-H838; ref Moody et al., 2002; cited from earlier work
NCI-H838 cells = settings: ref Moody et al., cited from earlier work; for growth of NCI-H838 cells: 2003b
PYK-2 [5] = settings: NCI-H69, ref Roelle et al., 2008, cited from earlier work; for PYK-2 tyrosine phosphorylation: 10 μM
[6] = test system: cytosolic Ca^2+ (NCI-H69 cells); settings: 10 μM, ref Roelle et al., 2008; cited from earlier work
[7] = test system: cytosolic Ca^2+ (NCI-H510 cells); settings: 10 μM, ref Roelle et al., 2008; cited from earlier work
PYK-2 [8] = settings: 10 μM, NCI-H510; ref Roelle et al., 2008; cited from earlier work
FAK [9] = settings: pancreatic acini, cited from earlier work
[10] = test system: cytosolic Ca^2+ (NCI-H838 cells); assay: Cytosolic Ca^2+ in Fura-2 AM loaded NCI-H838 cells; format: cell-based; settings: for effect on PACAP-27-stimulated fluorescence intensity / effect on basal fluorescence intensity: 50 μM inhibitor; for effect on PACAP-27-stimulated fluorescence intensity: 100 nM PACAP-27, Fig. 1; for effect on basal fluorescence intensity: Fig. 1; for effect on PACAP-induced increase in cytosolic Ca^2+ (discussion): NCI-H838 cells
[11] = test system: cytosolic Ca^2+ (pancreatic acini); settings: ref Pace et al., 2003; cited from earlier work
PYK-2 [12] = settings: by an increase in cytoplasmic Ca^2+; ref Lev et al., 1995; cited from earlier work
FAK [13] = settings: read-out: FAK IC50, cited from earlier work
glioma tumor = settings: animal models; ref Halder et al., 2007; cited from earlier work
ovarian tumor = settings: animal models; ref Halder et al., 2007; cited from earlier work
PYK-2 [14] = settings: read-out: PYK-2 IC50, cited from earlier work
VPAC2 = settings: ref Ishihara et al., 1992; Lutz et al., 1993; cited from earlier work
VPAC1 = settings: ref Ishihara et al., 1992; Lutz et al., 1993; cited from earlier work
[15] = test system: prostate, breast, pancreatic and colon tumors; settings: nude mice; ref Roberts et al., 2008; cited from earlier work
ERK [16] = settings: NCI-H69; ref Roelle et al., 2008; cited from earlier work
[17] = ATP binding site, ref Liu et al., 2007
[18] = ATP binding, ref Roberts et al., 2008

For “pituitary adenylate cyclase activating polypeptide [PACAP]”, the PI metabolites ([1]; ref not given) is given as “increases”, the “Y^1068-EGFR phosphorylation” value ([2]; NCI-H838, after 1 min) is given as “increased” and the “total PYK-2” value (PYK-2 [3]) is given as “did not change”. The “binding affinity to PAC1” value (PAC1; ref not given for PACAP) was “high affinity”, the cAMP (cAMP; ref not given) was “increases” and the ERK tyrosine phosphorylation (ERK [4]) was “caused ERK tyrosine phosphorylation”. The “growth of NCI-H838 cells” value (NCI-H838 cells) was “stimulated”.

For “bradykinin (RPPGFSPFR; Bradykinin; UniProt P01042 381-389, looked up)”, the PYK-2 tyrosine phosphorylation (PYK-2 [5]) is listed as “increased”, the “cytosolic Ca^2+” value [6] is listed as “increased” and the “cytosolic Ca^2+” value [7] is listed as “increased”. For the same molecule, the PYK-2 tyrosine phosphorylation (PYK-2 [8]) was “increased”.

For `CN(C)CCCn1cc(C2=C(c3c[nH]c4ccccc34)C(=O)NC2=O)c2ccccc21` [GF109203X], the “effect on CCK-induced FAK tyrosine phosphorylation” value (FAK [9]; ref Tapia et al., 1999) is given as “unaffected”.

For “galanin (GWTLNSAGYLLGPHAVGNHRSFSDKNGLTS; Galanin; UniProt P22466 33-62, looked up)”, the PYK-2 tyrosine phosphorylation (PYK-2 [5]) is listed as “increased”, the “cytosolic Ca^2+” value [6] is listed as “increased” and the “cytosolic Ca^2+” value [7] is listed as “increased”. For the same molecule, the PYK-2 tyrosine phosphorylation (PYK-2 [8]) was “increased”.

In the case of `O=S(=O)(NCCNC/C=C/c1ccc(Br)cc1)c1cccc2cnccc12` [H89], the “effect on PACAP-27-stimulated fluorescence intensity” value [10] is reported as “no effect” and the “effect on basal fluorescence intensity” value [10] is reported as “no effect”.

For `C/C=C(/C)C(=O)O[C@H]1C(C)=C2[C@H]([C@@H]1OC(=O)CCCCCCC)[C@@](C)(OC(C)=O)C[C@H](OC(=O)CCC)[C@@]1(O)[C@H]2OC(=O)[C@@]1(C)O` [thapsigargin], the “effect on CCK-induced increase in cytosolic Ca^2+” value [11] is given as “inhibits”.

For “vasopressin (CYFQNCPRG-NH2; disulfide 1-6; ends not checked; UniProt P01185 20-28, looked up)”, the PYK-2 activation (PYK-2 [12]) is listed as “activated”.

In the case of “PACAP(6–38): PAC1 antagonist (FTDSYSRYRKQMAVKKYLAAVLGKRYKQRVKNK; ends and bridges not checked; UniProt P18509 137-169, looked up, fragment)”, the “effect on PACAP-induced EGFR tyrosine phosphorylation” value [2] is listed as “inhibited”, the “effect on PACAP-induced increase in cytosolic Ca^2+ (discussion)” value [10] is listed as “blocked” and the “growth of NCI-H838 cells” value (NCI-H838 cells) is listed as “inhibited”. For the same molecule, the “inhibition of proliferation of NCI-H838 cells” value (NCI-H838 cells; 2012) was “inhibited”.

For `COc1cccc(-c2cc(=O)c3ccccc3o2)c1N` [PD98059], the “effect on PACAP-induced ERK tyrosine phosphorylation” value (ERK [4]) is listed as “inhibited”.

In the case of `CNC(=O)c1ccccc1Nc1nc(Nc2ccc(N3CCOCC3)cc2OC)ncc1Cl` [TAE226], the IC50 (FAK [13]; [17]) is listed as 5 nM, the glioma tumor growth (glioma tumor) is listed as “inhibited” and the ovarian tumor growth (ovarian tumor) is listed as “inhibited”. The IC50 (PYK-2 [14]; [17]) was 5 nM.

In the case of vasoactive intestinal peptide [VIP], the PI turnover ([1]; ref Lee et al., 1990) is listed as “does not cause PI turnover”, the “binding affinity to VPAC2” value (VPAC2) is listed as “high affinity” and the “binding affinity to PAC1” value (PAC1; ref Ishihara et al., 1992, Lutz et al., 1993) is listed as “low affinity”. The “binding affinity to VPAC1” value (VPAC1) was “high affinity”, the cAMP (cAMP; ref Lee et al., 1990) was “increases” and the “growth of NCI-H838 cells” value (NCI-H838 cells) was “stimulated”.

With `COc1ccc2c(c1)CC[C@@H]1[C@@H]2CC[C@]2(C)[C@@H](NCCCCCCN3C(=O)C=CC3=O)CC[C@@H]12` [U73122] the “effect on ionomycin-induced increase in cytosolic Ca^2+” value ([10]; 5 μM ionomycin, data not shown) was “little effect”, the “effect on PACAP-27-stimulated fluorescence intensity” value [10] was “abolished” and the “effect on basal fluorescence intensity” value [10] was “little effect”.

For `O=C(O)CN(CC(=O)O)c1ccccc1OCCOc1ccccc1N(CC(=O)O)CC(=O)O` [BAPTA], the “effect on GAL- or BK-induced PYK-2 phosphorylation” value (PYK-2 [5]) is listed as “blocked”, the “effect on PACAP-induced EGFR tyrosine phosphorylation” value [2] is listed as “not BAPTA inhibited” and the “effect on PACAP-induced increase in cytosolic Ca^2+ (discussion)” value [10] is listed as “inhibited”.

In the case of `CN(c1ncccc1CNc1nc(Nc2ccc3c(c2)CC(=O)N3)ncc1C(F)(F)F)S(C)(=O)=O` [PF-562,271], the “growth of prostate, breast, pancreatic and colon tumors” value [15] is given as “inhibited”, the IC50 (FAK [13]; [18]) is given as 2 nM and the IC50 (PYK-2 [14]; [18]) is given as 13 nM.

In the case of platelet-derived growth factor, the PYK-2 activation (PYK-2 [12]) is listed as “activated”.

In the case of `CC(C)(C)n1nc(-c2ccc(Cl)cc2)c2c(N)ncnc21` [PP2], the “effect on GAL- or BK-induced PYK-2 phosphorylation” value (PYK-2 [5]) is given as “blocked”, the “effect on PACAP-induced EGFR tyrosine phosphorylation” value [2] is given as “inhibited” and the “effect on GAL- or BK-induced ERK tyrosine phosphorylation” value (ERK [16]) is given as “blocked”.

B1: Cholecystokinin (peptide, UniProt P06307 21-115, looked up)
Cholecystokinin: QPVPPADPAGSGLQRAEEAPRRQLRVSQRTDGESRAHLGALLARYIQQARKAPSGRMSIVKNLQNLDPSHRISDRDYMGWMDFGRRSAEEYEYPS
modifications: Cholecystokinin
For B1, the “cytosolic Ca^2+” value [11] is listed as “elevates” and the “tyrosine phosphorylation of FAK” value (FAK [9]; ref Pace et al., 2003) is listed as “causes tyrosine phosphorylation”.
